Experiment: xn = mol fraction of the nth substance listed
Conditions: Liquid, Vibrating tube method

CC(C)=O [acetone] + CCCCCCC
Conditions	mass density [kg/m3]
337.69 K, 970 kPa, x1 = 0.801	700.39
337.69 K, 4850 kPa, x1 = 0.801	706.05
337.69 K, 9830 kPa, x1 = 0.7024	699.81
337.69 K, 9840 kPa, x1 = 0.492	680.33
337.69 K, 9870 kPa, x1 = 0.801	712.82
337.69 K, 14820 kPa, x1 = 0.7024	705.98
337.69 K, 14860 kPa, x1 = 0.801	719.01
337.69 K, 14870 kPa, x1 = 0.492	686.47
337.69 K, 19850 kPa, x1 = 0.801	724.74
337.69 K, 19870 kPa, x1 = 0.492	692.06
337.69 K, 24790 kPa, x1 = 0.7024	717.01
337.69 K, 24840 kPa, x1 = 0.492	697.27
337.69 K, 24840 kPa, x1 = 0.801	730.15
337.69 K, 29870 kPa, x1 = 0.492	702.18
337.69 K, 39870 kPa, x1 = 0.7024	731.35
337.69 K, 49840 kPa, x1 = 0.801	752.9
337.69 K, 64830 kPa, x1 = 0.801	764.19
337.69 K, 84730 kPa, x1 = 0.7024	763.81
337.69 K, 89820 kPa, x1 = 0.7024	766.84
337.69 K, 94820 kPa, x1 = 0.7024	769.76
337.69 K, 99820 kPa, x1 = 0.7024	772.57
337.69 K, 104830 kPa, x1 = 0.7024	775.31
337.69 K, 109800 kPa, x1 = 0.7024	777.96
337.69 K, 114820 kPa, x1 = 0.7024	780.54
337.69 K, 119800 kPa, x1 = 0.7024	783.06
337.69 K, 124820 kPa, x1 = 0.7024	785.53
337.69 K, 129820 kPa, x1 = 0.7024	787.95
337.7 K, 930 kPa, x1 = 0.7024	687.32
337.7 K, 960 kPa, x1 = 0.492	668.07
337.7 K, 4830 kPa, x1 = 0.7024	693.05
337.7 K, 4860 kPa, x1 = 0.611	683.33
337.7 K, 4870 kPa, x1 = 0.492	673.74
337.7 K, 9860 kPa, x1 = 0.611	690.06
337.7 K, 14890 kPa, x1 = 0.611	696.23
337.7 K, 19800 kPa, x1 = 0.7024	711.67
337.7 K, 19850 kPa, x1 = 0.611	701.87
337.7 K, 24870 kPa, x1 = 0.611	707.18
337.7 K, 29860 kPa, x1 = 0.611	712.16
337.7 K, 29890 kPa, x1 = 0.7024	722.13
337.7 K, 34850 kPa, x1 = 0.492	706.79
337.7 K, 34850 kPa, x1 = 0.611	716.83
337.7 K, 34850 kPa, x1 = 0.801	739.96
337.7 K, 34880 kPa, x1 = 0.7024	726.85
337.7 K, 39850 kPa, x1 = 0.492	711.17
337.7 K, 39860 kPa, x1 = 0.611	721.28
337.7 K, 39860 kPa, x1 = 0.801	744.5
337.7 K, 44850 kPa, x1 = 0.7024	735.58
337.7 K, 44850 kPa, x1 = 0.801	748.79
337.7 K, 44860 kPa, x1 = 0.611	725.53
337.7 K, 49840 kPa, x1 = 0.7024	739.64
337.7 K, 49850 kPa, x1 = 0.611	729.53
337.7 K, 49860 kPa, x1 = 0.492	719.29
337.7 K, 54830 kPa, x1 = 0.611	733.35
337.7 K, 54830 kPa, x1 = 0.7024	743.51
337.7 K, 54850 kPa, x1 = 0.492	723.05
337.7 K, 54850 kPa, x1 = 0.801	756.81
337.7 K, 59810 kPa, x1 = 0.7024	747.21
337.7 K, 59840 kPa, x1 = 0.801	760.56
337.7 K, 59850 kPa, x1 = 0.492	726.67
337.7 K, 59940 kPa, x1 = 0.611	737.16
337.7 K, 64800 kPa, x1 = 0.7024	750.79
337.7 K, 64840 kPa, x1 = 0.492	730.12
337.7 K, 64920 kPa, x1 = 0.611	740.68
337.7 K, 69780 kPa, x1 = 0.7024	754.21
337.7 K, 69840 kPa, x1 = 0.4	783.77
337.7 K, 69840 kPa, x1 = 0.8992	783.77
337.7 K, 69910 kPa, x1 = 0.611	744.03
337.7 K, 69930 kPa, x1 = 0.801	767.73
337.7 K, 74900 kPa, x1 = 0.611	747.3
337.7 K, 74910 kPa, x1 = 0.801	771.08
337.7 K, 79880 kPa, x1 = 0.611	750.44
337.7 K, 79880 kPa, x1 = 0.801	774.31
337.7 K, 84860 kPa, x1 = 0.611	753.48
337.7 K, 84870 kPa, x1 = 0.801	777.45
337.7 K, 89840 kPa, x1 = 0.611	756.41
337.7 K, 99810 kPa, x1 = 0.801	786.3
337.7 K, 109780 kPa, x1 = 0.801	791.8
337.7 K, 114850 kPa, x1 = 0.801	794.44
337.7 K, 119850 kPa, x1 = 0.611	772.4
337.7 K, 119860 kPa, x1 = 0.801	797.03
337.71 K, 950 kPa, x1 = 0.611	677.6
337.71 K, 1150 kPa, x1 = 0.4	716.73
337.71 K, 1150 kPa, x1 = 0.8992	716.73
337.71 K, 5000 kPa, x1 = 0.4	722.27
337.71 K, 5000 kPa, x1 = 0.8992	722.27
337.71 K, 9990 kPa, x1 = 0.4	728.91
337.71 K, 9990 kPa, x1 = 0.8992	728.91
337.71 K, 14960 kPa, x1 = 0.4	735.03
337.71 K, 14960 kPa, x1 = 0.8992	735.03
337.71 K, 19960 kPa, x1 = 0.4	740.75
337.71 K, 19960 kPa, x1 = 0.8992	740.75
337.71 K, 24950 kPa, x1 = 0.4	746.11
337.71 K, 24950 kPa, x1 = 0.8992	746.11
337.71 K, 29870 kPa, x1 = 0.801	735.19
337.71 K, 29930 kPa, x1 = 0.4	751.13
337.71 K, 29930 kPa, x1 = 0.8992	751.13
337.71 K, 34930 kPa, x1 = 0.4	755.89
337.71 K, 34930 kPa, x1 = 0.8992	755.89
337.71 K, 39920 kPa, x1 = 0.4	760.43
337.71 K, 39920 kPa, x1 = 0.8992	760.43
337.71 K, 44840 kPa, x1 = 0.492	715.3
337.71 K, 49900 kPa, x1 = 0.4	768.86
337.71 K, 49900 kPa, x1 = 0.8992	768.86
337.71 K, 54890 kPa, x1 = 0.4	772.81
337.71 K, 54890 kPa, x1 = 0.8992	772.81
337.71 K, 64860 kPa, x1 = 0.4	780.28
337.71 K, 64860 kPa, x1 = 0.8992	780.28
337.71 K, 69930 kPa, x1 = 0.492	733.51
337.71 K, 74770 kPa, x1 = 0.7024	757.51
337.71 K, 74840 kPa, x1 = 0.4	787.15
337.71 K, 74840 kPa, x1 = 0.8992	787.15
337.71 K, 74910 kPa, x1 = 0.492	736.73
337.71 K, 79750 kPa, x1 = 0.7024	760.71
337.71 K, 79820 kPa, x1 = 0.4	790.43
337.71 K, 79820 kPa, x1 = 0.8992	790.43
337.71 K, 79900 kPa, x1 = 0.492	739.82
337.71 K, 84890 kPa, x1 = 0.492	742.8
337.71 K, 89860 kPa, x1 = 0.801	780.47
337.71 K, 89870 kPa, x1 = 0.492	745.68
337.71 K, 94760 kPa, x1 = 0.4	799.66
337.71 K, 94760 kPa, x1 = 0.8992	799.66
337.71 K, 94820 kPa, x1 = 0.611	759.24
337.71 K, 94840 kPa, x1 = 0.492	748.47
337.71 K, 94840 kPa, x1 = 0.801	783.46
337.71 K, 99730 kPa, x1 = 0.4	802.55
337.71 K, 99730 kPa, x1 = 0.8992	802.55
337.71 K, 99820 kPa, x1 = 0.492	751.17
337.71 K, 104700 kPa, x1 = 0.4	805.37
337.71 K, 104700 kPa, x1 = 0.8992	805.37
337.71 K, 104790 kPa, x1 = 0.611	764.72
337.71 K, 104800 kPa, x1 = 0.492	753.81
337.71 K, 104800 kPa, x1 = 0.801	789.1
337.71 K, 109680 kPa, x1 = 0.4	808.11
337.71 K, 109680 kPa, x1 = 0.8992	808.11
337.71 K, 109770 kPa, x1 = 0.492	756.37
337.71 K, 109850 kPa, x1 = 0.611	767.36
337.71 K, 114650 kPa, x1 = 0.4	810.79
337.71 K, 114650 kPa, x1 = 0.8992	810.79
337.71 K, 114850 kPa, x1 = 0.492	758.9
337.71 K, 114860 kPa, x1 = 0.611	769.89
337.71 K, 119620 kPa, x1 = 0.4	813.4
337.71 K, 119620 kPa, x1 = 0.8992	813.4
337.71 K, 119840 kPa, x1 = 0.492	761.32
337.71 K, 124840 kPa, x1 = 0.492	763.7
337.71 K, 124850 kPa, x1 = 0.801	799.52
337.71 K, 129550 kPa, x1 = 0.4	818.42
337.71 K, 129550 kPa, x1 = 0.8992	818.42
337.71 K, 129840 kPa, x1 = 0.801	801.97
337.71 K, 129850 kPa, x1 = 0.492	766
337.72 K, 44910 kPa, x1 = 0.4	764.73
337.72 K, 44910 kPa, x1 = 0.8992	764.73
337.72 K, 59870 kPa, x1 = 0.4	776.58
337.72 K, 59870 kPa, x1 = 0.8992	776.58
337.72 K, 84800 kPa, x1 = 0.4	793.6
337.72 K, 84800 kPa, x1 = 0.8992	793.6
337.72 K, 89780 kPa, x1 = 0.4	796.66
337.72 K, 89780 kPa, x1 = 0.8992	796.66
337.72 K, 99810 kPa, x1 = 0.611	762.02
337.72 K, 124590 kPa, x1 = 0.4	815.94
337.72 K, 124590 kPa, x1 = 0.8992	815.94
337.72 K, 124870 kPa, x1 = 0.611	774.78
337.72 K, 129860 kPa, x1 = 0.611	777.16
347.61 K, 960 kPa, x1 = 0.7024	676.19
347.61 K, 4840 kPa, x1 = 0.7024	682.43
347.61 K, 9820 kPa, x1 = 0.7024	689.72
347.61 K, 14820 kPa, x1 = 0.7024	696.37
347.61 K, 19810 kPa, x1 = 0.7024	702.46
347.61 K, 24790 kPa, x1 = 0.7024	708.14
347.61 K, 29890 kPa, x1 = 0.7024	713.58
347.61 K, 34890 kPa, x1 = 0.7024	718.57
347.61 K, 39880 kPa, x1 = 0.7024	723.29
347.61 K, 44870 kPa, x1 = 0.7024	727.75
347.61 K, 49860 kPa, x1 = 0.7024	731.98
347.61 K, 54840 kPa, x1 = 0.7024	736.03
347.61 K, 59830 kPa, x1 = 0.7024	739.91
347.61 K, 64820 kPa, x1 = 0.7024	743.63
347.61 K, 69810 kPa, x1 = 0.7024	747.19
347.61 K, 74800 kPa, x1 = 0.7024	750.62
347.61 K, 79780 kPa, x1 = 0.7024	753.92
347.61 K, 84760 kPa, x1 = 0.7024	757.12
347.61 K, 89750 kPa, x1 = 0.7024	760.21
347.61 K, 94730 kPa, x1 = 0.7024	763.2
